Test results as given in ChEMBL document CHEMBL1201862, “PubChem BioAssay data set” (2004).
Each block holds one molecule with its values, some of them ahead of it. The source made the active and inactive calls.

Tests used:
[1] = target: T1, ATP-dependent translocase ABCB1 (Homo sapiens, UniProt P08183); assay: ABCG2 efflux pump inhibitor potency, dose response, Ig-MXP3 cells, JC-1, flow cytometry, set 2 (AID 504566); format: functional; conditions: read-out: EC50_MICROM_;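 note: flow cytometry median green fluorescence of retained JC-1 dye; potency of efflux pump inhibition measured as rising substrate retention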
[2] = target: T1, ATP-dependent translocase ABCB1; assay: ABCB1 efflux inhibitor potency, dose response, Jurkat-DNR cells, JC-1, flow cytometry, set 2 (AID 504569); format: functional; conditions: read-out: EC50_MICROM_;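 note: potency of pump inhibitors that raise cellular JC-1 green fluorescence up to the nicardipine level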
Paired box protein Pax-8 = Paired box protein Pax-8 (Homo sapiens, UniProt Q06710); assay: inhibitors of PAX8-driven TPO luciferase reporter, dose response, RMG-I cells, cherry-pick (AID 687027); format: functional, cell-based;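 note: luciferase reporter driven by Pax8 target thyroperoxidase promoter measured by SteadyGlo luminescence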
[3] = NIH:OVCAR-3 ovarian cancer cell cytotoxicity, dose response, PAX8 inhibitor project, plate reader, dry powder samples (AID 743044); format: functional, cell-based
[4] = target: Potassium channel subfamily K member 9 (Homo sapiens, UniProt Q9NPC2); assay: TASK3 (KCNK9) channel inhibitors, thallium flux, SAR follow-up, selectivity assay for TASK1 inhibitor project, cell-based, FluxOR thallium flux, concentration-response (AID 652211); format: functional;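 note: potency is for inhibitors of the channel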
[5] = target: Luciferin 4-monooxygenase (Photinus pyralis, UniProt P08659); assay: Counter Screen for Luciferase-based Assay Positives. [Related pubchem assays: 620, 618, 411 ]
HT-1080 = assay: cytotoxicity in HT1080 fibrosarcoma cells, cell-based, fluorescence readout (AID 620); format: functional; conditions: Homo sapiens
HEK293 = assay: inhibitors of LMP1-driven NF-kB reporter, dose response, cell-based, HEK293, luciferase, cherry-pick (AID 588343); format: functional; conditions: Homo sapiens
Protein skinhead-1 = target: T2, Protein skinhead-1 (Caenorhabditis elegans, UniProt P34707); format: functional
T2 sequence (P34707 whole entry): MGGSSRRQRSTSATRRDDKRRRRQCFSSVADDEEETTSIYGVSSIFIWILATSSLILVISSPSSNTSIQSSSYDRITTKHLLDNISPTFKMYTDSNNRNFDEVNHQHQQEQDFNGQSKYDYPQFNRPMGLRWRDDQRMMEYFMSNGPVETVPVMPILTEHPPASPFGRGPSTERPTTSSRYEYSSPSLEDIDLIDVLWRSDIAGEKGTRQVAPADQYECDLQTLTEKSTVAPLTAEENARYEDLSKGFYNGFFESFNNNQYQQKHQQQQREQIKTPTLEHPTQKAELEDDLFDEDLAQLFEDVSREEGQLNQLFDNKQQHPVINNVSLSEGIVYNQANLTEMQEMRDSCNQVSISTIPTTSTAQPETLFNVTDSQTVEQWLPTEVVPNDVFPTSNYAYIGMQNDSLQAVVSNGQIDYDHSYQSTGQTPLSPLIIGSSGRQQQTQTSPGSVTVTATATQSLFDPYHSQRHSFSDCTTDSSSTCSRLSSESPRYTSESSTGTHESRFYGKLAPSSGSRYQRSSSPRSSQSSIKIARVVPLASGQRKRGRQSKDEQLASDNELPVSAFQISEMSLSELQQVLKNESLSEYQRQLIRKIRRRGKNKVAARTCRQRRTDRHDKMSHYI

[6] = A549 cell cytotoxicity, dose response, cytotoxicity control, plate reader, cherry-pick, antagonist series (AID 743412); format: functional, cell-based
[7] = HepG2 cell cytotoxicity, dose response, cytotoxicity control, plate reader, cherry-pick, antagonist series (AID 743416); format: functional, cell-based
[8] = LGR2 antagonists, dose response, cell-based, HEK293, CRE-luciferase reporter, cherry pick, set 2 (AID 743343); format: functional;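 note: transfected cells were stimulated with diluted bursicon conditioned medium after compound addition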
[9] = MC4R antagonists, dose response, counter-screen for LGR2 antagonist project, cell-based, plate reader, cherry pick (AID 743444); format: functional;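 note: transfected HEK 293 cells stimulated with alpha-MSH peptide; potency of inhibitors of the alpha-MSH evoked signal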
[10] = target: T3, Oxysterols receptor LXR-beta (Homo sapiens, UniProt P55055); format: functional, cell-based;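 note: Cell-based luminescence dose-response assay of agonist activity at LXR, run as a confirmatory counterscreen to a daf-12 agonist screen; HEK293 cells with Gal4-LXR fusion and GAL4-driven luciferase reporter; agonist potency from rising luciferase signal of a Gal4-LXR reporter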
T3 sequence (P55055 whole entry): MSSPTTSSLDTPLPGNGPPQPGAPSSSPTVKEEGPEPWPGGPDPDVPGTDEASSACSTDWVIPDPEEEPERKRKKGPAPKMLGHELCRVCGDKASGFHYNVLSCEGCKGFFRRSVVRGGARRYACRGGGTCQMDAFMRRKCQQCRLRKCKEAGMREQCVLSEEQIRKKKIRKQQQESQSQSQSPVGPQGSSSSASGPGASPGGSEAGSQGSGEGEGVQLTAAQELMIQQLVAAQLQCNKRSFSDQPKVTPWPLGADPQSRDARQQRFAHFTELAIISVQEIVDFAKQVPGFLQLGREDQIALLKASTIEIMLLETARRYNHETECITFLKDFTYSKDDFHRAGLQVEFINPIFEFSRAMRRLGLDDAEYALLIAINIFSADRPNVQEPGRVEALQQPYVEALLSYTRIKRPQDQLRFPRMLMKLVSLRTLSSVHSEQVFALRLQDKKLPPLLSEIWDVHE

T1 sequence (P08183 whole entry): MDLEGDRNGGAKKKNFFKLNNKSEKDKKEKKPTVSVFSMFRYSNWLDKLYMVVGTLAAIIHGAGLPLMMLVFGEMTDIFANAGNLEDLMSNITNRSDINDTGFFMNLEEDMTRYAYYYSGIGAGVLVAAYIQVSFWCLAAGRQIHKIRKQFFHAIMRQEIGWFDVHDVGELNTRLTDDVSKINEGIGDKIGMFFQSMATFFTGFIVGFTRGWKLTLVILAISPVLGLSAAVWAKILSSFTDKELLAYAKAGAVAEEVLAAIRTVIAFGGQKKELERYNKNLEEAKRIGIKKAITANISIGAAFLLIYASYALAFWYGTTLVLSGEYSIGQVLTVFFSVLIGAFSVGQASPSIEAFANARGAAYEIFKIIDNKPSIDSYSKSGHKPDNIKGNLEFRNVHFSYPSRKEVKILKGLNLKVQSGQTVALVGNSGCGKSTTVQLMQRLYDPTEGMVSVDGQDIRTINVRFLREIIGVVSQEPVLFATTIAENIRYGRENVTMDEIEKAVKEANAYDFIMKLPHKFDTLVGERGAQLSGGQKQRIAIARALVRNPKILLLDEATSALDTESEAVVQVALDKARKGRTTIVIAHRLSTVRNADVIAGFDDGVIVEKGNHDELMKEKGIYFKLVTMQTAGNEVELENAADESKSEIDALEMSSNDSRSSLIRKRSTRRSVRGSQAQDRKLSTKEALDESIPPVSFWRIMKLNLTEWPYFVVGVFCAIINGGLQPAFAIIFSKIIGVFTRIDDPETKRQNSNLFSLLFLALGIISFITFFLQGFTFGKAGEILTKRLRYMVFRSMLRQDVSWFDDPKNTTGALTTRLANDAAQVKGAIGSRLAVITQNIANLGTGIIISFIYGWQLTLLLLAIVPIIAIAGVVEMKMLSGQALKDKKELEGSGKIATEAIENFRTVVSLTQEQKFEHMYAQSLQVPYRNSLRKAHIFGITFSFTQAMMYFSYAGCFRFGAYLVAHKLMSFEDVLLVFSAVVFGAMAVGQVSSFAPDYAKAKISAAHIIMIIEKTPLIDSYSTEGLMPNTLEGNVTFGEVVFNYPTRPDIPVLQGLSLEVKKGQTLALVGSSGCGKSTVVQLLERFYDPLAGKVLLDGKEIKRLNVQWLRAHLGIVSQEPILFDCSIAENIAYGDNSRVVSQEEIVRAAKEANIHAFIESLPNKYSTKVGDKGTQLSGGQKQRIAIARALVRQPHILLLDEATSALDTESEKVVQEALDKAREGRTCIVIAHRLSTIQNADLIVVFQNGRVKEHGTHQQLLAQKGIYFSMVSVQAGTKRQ
Chain of Potassium channel subfamily K member 9 (Q9NPC2 whole entry): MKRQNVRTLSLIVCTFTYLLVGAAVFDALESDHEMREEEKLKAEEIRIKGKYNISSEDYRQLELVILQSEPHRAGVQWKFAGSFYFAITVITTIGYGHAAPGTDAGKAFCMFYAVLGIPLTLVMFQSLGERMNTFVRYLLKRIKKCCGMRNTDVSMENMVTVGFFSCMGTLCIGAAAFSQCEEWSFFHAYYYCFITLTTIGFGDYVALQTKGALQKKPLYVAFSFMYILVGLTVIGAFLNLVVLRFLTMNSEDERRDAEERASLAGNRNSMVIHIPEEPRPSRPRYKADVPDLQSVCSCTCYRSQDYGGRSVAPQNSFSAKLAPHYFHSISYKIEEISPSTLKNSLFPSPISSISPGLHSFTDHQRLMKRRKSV
Chain of Luciferin 4-monooxygenase (P08659 whole entry): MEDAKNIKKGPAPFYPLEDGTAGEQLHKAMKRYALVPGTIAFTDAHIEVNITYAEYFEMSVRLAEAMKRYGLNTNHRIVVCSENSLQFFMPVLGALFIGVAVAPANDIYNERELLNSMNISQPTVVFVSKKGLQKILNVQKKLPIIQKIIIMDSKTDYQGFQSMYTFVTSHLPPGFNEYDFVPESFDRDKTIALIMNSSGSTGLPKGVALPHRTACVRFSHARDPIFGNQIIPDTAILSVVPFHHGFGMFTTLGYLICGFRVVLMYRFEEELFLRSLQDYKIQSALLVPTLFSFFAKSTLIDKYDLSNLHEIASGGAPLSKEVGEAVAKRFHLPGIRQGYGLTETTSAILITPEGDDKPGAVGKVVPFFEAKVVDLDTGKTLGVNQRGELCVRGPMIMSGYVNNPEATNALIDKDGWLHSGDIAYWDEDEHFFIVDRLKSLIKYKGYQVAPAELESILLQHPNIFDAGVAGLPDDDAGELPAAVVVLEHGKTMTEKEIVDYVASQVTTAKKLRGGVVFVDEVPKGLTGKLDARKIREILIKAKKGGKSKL
Chain of Paired box protein Pax-8 (Q06710 whole entry): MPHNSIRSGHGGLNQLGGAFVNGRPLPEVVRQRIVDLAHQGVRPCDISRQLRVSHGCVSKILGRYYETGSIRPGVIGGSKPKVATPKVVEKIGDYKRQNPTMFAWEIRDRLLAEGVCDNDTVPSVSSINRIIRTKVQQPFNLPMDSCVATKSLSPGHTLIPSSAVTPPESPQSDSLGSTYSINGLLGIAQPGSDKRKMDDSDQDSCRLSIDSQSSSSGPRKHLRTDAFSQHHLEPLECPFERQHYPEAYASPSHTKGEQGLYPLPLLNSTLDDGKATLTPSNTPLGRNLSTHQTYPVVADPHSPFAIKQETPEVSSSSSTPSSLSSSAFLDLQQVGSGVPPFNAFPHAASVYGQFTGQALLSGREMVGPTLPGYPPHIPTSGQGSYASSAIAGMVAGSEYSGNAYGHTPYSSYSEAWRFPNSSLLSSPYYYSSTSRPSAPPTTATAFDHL

SMILES: C[C@H](CO)N1C[C@H](C)[C@@H](CN(C)Cc2ccc(C(F)(F)F)cc2)OCCCC[C@H](C)Oc2ccc(NC(=O)Cc3ccccc3)cc2C1=O
AC50 (Paired box protein Pax-8): 9.66 µM (active)
AC50 [3]: 30.6 µM (active)

SMILES: Brc1ccc(-c2nc(-c3ccccn3)no2)o1
EC50 [5]: 2.58 µM (active)
EC50 (HT-1080): > 50 µM (not active)
AC50 (HEK293): 2.33 µM (active)
IC50 (Protein skinhead-1): 72.1 µM (inactive)
AC50 [6]: > 52 µM (inactive)
AC50 [7]: > 52 µM (inactive)
AC50 [8]: 2.92 µM (active)
AC50 [9]: 3.84 µM (active)
EC50 [10]: > 67.5 µM (inactive)
EC50 (cells): > 67.5 µM (inactive)

Other lines, results leading:

EC50 [1]: 1.79 µM (active)
EC50 [2]: 3.83 µM (active)
SMILES: COc1ccc(-c2cc3nc(C)c(C)c(N4CCN(C(=O)c5ccsc5)CC4)n3n2)cc1

EC50 [1]: 1.63 µM (active)
EC50 [2]: 3.4 µM (active)
SMILES: O=C(c1ccsc1)N1CCN(c2cc(-c3ccccc3)nc3cc(-c4cccc(Cl)c4)nn23)CC1

IC50 [4]: 7.21 µM (active)
SMILES: O=C(Nc1cccc(NC(=O)c2ccccc2C(F)(F)F)c1)c1ccccc1

IC50 [4]: 1.17 µM (active)
SMILES: COc1ccccc1C(=O)Nc1cccc(NC(=O)c2ccccc2OC(F)(F)F)c1
